The subject of one test is mutant dystonic hamster. The experiment in a line: Mutant dystonic hamster, scored dystonic attacks. The test is classed as in vivo. Conditions: scoring system. The source says: A typical animal model is the mutant dystonic hamster according to A. Richter and W. Löscher, Prog. Neurobiol. 1998; 54: 633-677. In this genetically dystonic hamsters, dystonic attacks are provoked by taking the animal from the home cage and placing it on a balance. The dystonic syndrome consists of a sequence of abnormal movements, and the severity of the single symptoms is rated by a scoring system.

Test [1] relates to cervical dystonia (spasmodic torticollis). The experiment in a line: Double-blind placebo-controlled study in cervical dystonia (TWSTRS). The following applies: 2.5 mg to 20 mg b.i.d. versus placebo. The test is classed as in vivo, patients.
Test [2] relates to Parkinsonian cynomolgus monkey. The experiment in a line: Adverse effects of long-term l-dopa treatment in the MPTP Parkinsonian cynomolgus monkey. The test is classed as in vivo. Conditions: MPTP monkeys chronically treated with l-dopa. The method, then: Treatment of adverse effects of conventional anti-Parkinsonian drugs as defined above are determined in a modification of the animal model of the Parkinsonian cynomolgus monkey according to P.J. Blanchet et al., Exp. Neurology 1998; 153: 214-222. Monkeys render parkinsonian by repeated injections of 1-methyl-4-phenyl-1,2,3,6-tetrahydropyridine (MPTP). The Parkinsonian monkeys are chronically treated with the standard I-dopa therapy according to P.J. Blanchet et al., Mov. Disord., 1998; 13: 798-802. Longterm treatment with I-dopa induces extrapyramidal motor side effects and psychotic states which are both qualitatively and quantitatively, assessed by the Abnormal Involuntary Movement Scale (P.J. Blanchet et al., Mov. Disord. 1998; 13: 798-802) for different body parts (face, neck, trunk, each limb) and by rating for psychotic states by observing the monkey's attention, reactivity and mobility. Trans-4-[4-(3-chloro-4-methoxybenzylamino)-benzothieno-[2,3-d]pyrimidin-2-yl]cyclohexane-carboxylic acid reduced overall choreiform dyskinesias and dystonic dyskinesias as well as psychotic states.

In test [3] the test system is Campus Syndrome in the Pietrain pig. The experiment in a line: Campus Syndrome tremor model, accelerometric recording. The test is classed as in vivo. The source says: (§1) Typical genetic models in mutant animals are the Campus Syndrome in the Pietrain pig according to A. Richter et al. (Exp. Neurology, 1995; 134: 205-213) or the Weaver mutant mouse according to J.R. Simon and B. Ghetti (Mol. Neurobiol., 1994; 9: 183-189). In the Campus Syndrome model, these mutant pigs show a high-frequency tremor when standing and during locomotion, but not while lying at rest. Assessment of tremor is made by accelerometric recording. In the Weaver mutant mouse, degenerative cerebellar atrophy is fould in association with tremor, gait instability, and toppling over the sides after a few steps.
(§2) Trans-4-[4-(3-chloro-4-methoxybenzylamino)-benzothieno-[2,3-d]pyrimidin-2-yl]cyclohexanecarboxylic acid or a physiologically acceptable salt thereof improve the Campus Syndrome in the Pietrain pig, i.e. reduce disabling tremor when standing and during locomotion, and enhance locomotor activity in the Weaver mutant mouse.

The subject of test [4] is oxotremorine-induced tremor. The experiment in a line: Oxotremorine-induced tremor, rating scale. The test is classed as in vivo. The method, then: A typical animal model for drug-induced tremors is the oxotremorine-induced tremor (e.g. H. Hallberg and O. Almgren, Acta Physiol. Scand., 1987; 129: 407-13; J.G. Clement and W.R. Dyck, J. Pharmacol. Meth., 1989; 22: 25-36). Oxotremorine induces tremor which is measured by a rating scale. Trans-4-[4-(3-chloro-4-methoxybenzylamino)-benzothieno-[2,3-d]pyrimidin-2-yl]cyclohexanecarboxylic acid or a physiologically acceptable salt thereof inhibit oxotremorine-induced tremors.

For test [5], the system named is patients with Huntington's disease. The experiment in a line: Placebo-controlled add-on trial in Huntington's disease. The test is classed as in vivo. Conditions: AIMS, UHDRS, video recordings; add-on 2.5 to 20 mg b.i.d. versus placebo. The method, then:
A typical trial to establish the effect of the compounds according to the invention on chorea, voluntary motor performance, and functional disability in patients with Huntington's disease encompasses 32 genetically diagnosed patients. Trans-4-[4-(3-chloro-4-methoxybenzylamino)-benzothieno-[2,3-d]pyrimidin-2-yl]cyclohexanecarboxylic acid sodium or ethanolamine salt or placebo is administered as "add on" to the conventional treatment, which is maintained unchanged during the whole study. The dose of blinded medication is titrated over a period of 3 weeks in a range from 2.5 to 20 mg b.i.d. Then the medication is held constant for 1 week. Assessments are performed in the week before and at the last day of the trial. Chorea is scored using the abnormal involuntary movement scale (AIMS, W. Guy, in: ECDEU assessment manual. Rockville MD: US dept. of health, education and welfare, 1976: 534-537), the unified Huntington's disease rating scale (UHDRS, Huntington study group, 1996, Movement Disord, 11: 136-42), and judgement of video recordings. Voluntary motor performance is assessed using the UHDRS motor scale. Patients and their partners complete a questionnaire regarding functional disability.

The subject of another test is Weaver mutant mouse. The test can be described thus: Weaver mutant mouse, locomotor activity in activity cages. The test is classed as in vivo.
Source text: as §1, §2

Test [6] deals with Parkinsonian cynomolgus monkey. The experiment in a line: MPTP Parkinsonian cynomolgus monkey, Laval University Disability Scale. The test is classed as in vivo. An excerpt: A typical animal model for idiopathic Parkinson's disease is the Parkinsonian cynomolgus monkey according to P.J. Blanchet et al., Exp. Neurology 1998; 153: 214-222. Monkeys render parkinsonian by repeated injections of 1-methyl-4-phenyl-1,2,3,6-tetrahydropyridine (MPTP).
Parkinsonian symptoms are qualitatively assessed by the use of the Laval University Disability Scale (B. Gomez-Mancilla et al., 1993; Mov. Disord. 8: 144-150) measuring the following symptoms: posture, mobility, climbing, gait, holding food, vocalizing, grooming, social interaction.

Test [7] relates to reserpinized rat or mouse. The test can be described thus: Reserpine-induced akinesia in activity meters. The test is classed as in vivo. The following applies: 24 h after reserpine. The method, then:
A typical animal model is the reserpinized rat or mouse (e.g. M.S. Starr and B.S. Starr, J. Neural Transm. - Park. Dis. Dement. Sect., 1994; 7: 133-142; M. Gossel et al., J. Neural Transm. - Park. Dis. Dement. Sect., 1995; 10: 27-39; N.R. Hughes et al., Mov. Disord., 1998; 13: 228-233). Reserpine is a potent depleter of monoamines and produces nearly complete akinesia in both species. Prominent 24 h after application, the distance travelled and the time active is nearly zero as measured in conventional activity meters.

A further test relates to posthypoxic myoclonus. The experiment in a line: Posthypoxic myoclonus after cardiac arrest. The following applies: rats resuscitated after cardiac arrest for 8 minutes. The test is classed as in vivo. The method, then:
A typical animal model for myoclonus is myoclonus induced by an acute hypoxic episode according to D.D. Truong et al., Mov. Dsiord., 1994; 9: 201-206). In this model of posthypoxic myoclonus, rats undergo a cardiac arrest for 8 minutes and are resuscitated thereafter. Myoclonic jerks occur spontaneously but can be provoked by auditory stimulation, too, worsening over the days following cardiac arrest.

Setting [8] is: Abnormal Involuntary Movement Scale.

Turning to `COc1ccc(CNc2nc([C@H]3CC[C@H](C(=O)O)CC3)nc3sc4ccccc4c23)cc1Cl` [trans-4-[4-(3-chloro-4-methoxybenzylamino)-benzothieno-[2,3-d]pyrimidin-2-yl]cyclohexanecarboxylic acid], the “severity of dystonic symptoms” value with mutant dystonic hamster is “dose-dependently reduce”. Further, in [1], the TWSTRS scores entry was “significant improvement”. For the same molecule, in test [2] (setting [8]), the dystonic dyskinesias result is “reduced” and the overall choreiform dyskinesias entry is on record as “reduced”. Moreover, in test [2] (rating of attention, reactivity and mobility), the psychotic states entry is reported as “reduced”. The “disabling tremor when standing and during locomotion” value in test [3] is given as “reduce”. Also, the oxotremorine-induced tremors result in [4] is on record as “inhibit”. For the same molecule, the “voluntary and involuntary motor performance” value in [5] is listed as “significant improvement”. In the test on Weaver mutant mouse, the locomotor activity entry was “enhance”. In addition, the parkinsonian symptoms result in [6] (Laval University Disability Scale) is “reduced all the parkinsonian symptoms”. The total activity result in test [6] (MPTP monkeys) is given as “increased”. For the same molecule, the akinesia entry in test [7] is given as “dose-dependently reduced”. Further, the “distance travelled and time active” value in test [7] (conventional activity meters) is “restored distance travelled and time active to about the level of normal animals”. Further, in the test with posthypoxic myoclonus, the “number of spontaneous and autitory-evoked myoclonic jerks” value was “dose-dependently reduce”.

Source of the values: patent publication EP1543832A2, “Use of trans-4[4-(3-chloro-4-methoxy-benzylamino) benzothieno[2,3-d]pyrimidin-2-yl]-cyclohexanecarboxylic acid in the treatment of extrapyramidal movement disorders” (MERCK PATENT GmbH, priority 2003, dated 2005).
